# ChEMBL document CHEMBL1137242, “Application of azide-alkyne cycloaddition 'click chemistry' for the synthesis of Grb2 SH2 domain-binding macrocycles” (Bioorg Med Chem Lett, 2006)
# Starred links: 1 amine or outer side, 2 acyl side, 3 side chain; linkers in the order of their positions; H or OH if unused. Non-standard residues stand in square brackets, D forms with d. Residues, ends and D or L forms follow the SMILES beside them. *: point of attachment. Pmp = N[C@@H](Cc1ccc(CP(=O)(O)O)cc1)C(=O)O; X1 = O=C(Cn1cc(CCCN[*:1])nn1)[*:2]; Ac6c = NC1(C(=O)O)CCCCC1; NHPentyl = CCCCCN*
# Biological target: Growth factor receptor-bound protein 2 (Homo sapiens, UniProt P62993)
# Sequence (P62993 whole entry, the tested form may be a part): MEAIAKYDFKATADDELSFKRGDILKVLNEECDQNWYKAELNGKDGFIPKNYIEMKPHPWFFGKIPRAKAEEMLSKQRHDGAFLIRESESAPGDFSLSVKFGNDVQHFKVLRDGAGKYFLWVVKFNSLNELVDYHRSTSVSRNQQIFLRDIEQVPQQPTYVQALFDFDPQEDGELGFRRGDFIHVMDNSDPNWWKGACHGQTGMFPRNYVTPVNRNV
# Assay: Binding affinity to Grb2-SH2 domain
row,Structure (SMILES),Kd [nM]
1,NC(=O)C[C@@H]1NC(=O)C2(CCCCC2)NC(=O)[C@@H](Cc2ccc(CP(=O)(O)O)cc2)NC(=O)Cn2cc(nn2)CCCNC1=O,> 1000
2,NC(=O)C[C@@H]1NC(=O)C2(CCCCC2)NC(=O)[C@H](Cc2ccc(CP(=O)(O)O)cc2)NC(=O)Cn2cc(nn2)CCCNC1=O,230
3,NC(=O)C[C@@H]1NC(=O)C2(CCCCC2)NC(=O)[C@@H](Cc2ccc(CP(=O)(O)O)cc2)NC(=O)Cn2cc(nn2)CCCNC(=O)[C@H](CC(N)=O)NC(=O)C2(CCCCC2)NC(=O)[C@@H](Cc2ccc(CP(=O)(O)O)cc2)NC(=O)Cn2cc(nn2)CCCNC1=O,> 1000
4,NC(=O)C[C@@H]1NC(=O)C2(CCCCC2)NC(=O)[C@H](Cc2ccc(CP(=O)(O)O)cc2)NC(=O)Cn2cc(nn2)CCCNC(=O)[C@H](CC(N)=O)NC(=O)C2(CCCCC2)NC(=O)[C@H](Cc2ccc(CP(=O)(O)O)cc2)NC(=O)Cn2cc(nn2)CCCNC1=O,1.8
5,CCCCCNC(=O)[C@H](CC(N)=O)NC(=O)C1(NC(=O)[C@H](Cc2ccc(CP(=O)(O)O)cc2)NC(=O)Cn2cc(CCCNC(=O)[C@H](CC(N)=O)NC(=O)C3(NC(=O)[C@H](Cc4ccc(CP(=O)(O)O)cc4)NC(C)=O)CCCCC3)nn2)CCCCC1 (Ac-[Pmp][Ac6c]N[X1][Pmp][Ac6c]N-NHPentyl),1.1
6,C#CCCCNC(=O)[C@H](CC(N)=O)NC(=O)C1(NC(=O)[C@H](Cc2ccc(CP(=O)(O)O)cc2)NC(=O)CN=[N+]=[N-])CCCCC1,> 1000
